A word on the IC50: it is the concentration that gives 50% inhibition.

The structures appear in SMILES notation. Counter-ions that a name gives are not always drawn.

This assay has as its system HSV-1. The assay is described as follows: HSV-1 infection of Vero 76 cells, viral DNA detected by hybridization capture (chemiluminescence). The assay is classed as cell-based. To be noted: Human alphaherpesvirus 1; HSV-1 in Vero 76 cells, MOI=0.001, compounds incubated 40–48 hours at 37° C.; read-out: IC50. From the text:
In the following example, “MEM” means Minimal Essential Media; “FBS” means Fetal Bovine Serum; “NP40” and “Igepal” are detergents; “MOI” means Multiplicity of Infection; “NaOH” means sodium hydroxide; “MgCl2” means magnesium chloride; “dATP” means deoxyadenosine 5′ triphosphate; “dUTP” means deoxyuridine 5′ triphosphate; “dCTP” means dexoxycytidine 5′ triphosphate; “dGTP” means deoxyguanosine 5′ triphosphate; “GuSCN” means Guanidinium thiocyanate; “EDTA” means ethylenediamine tetraacetic acid; “TE” means Tris-EDTA; “SCC” means sodium chloride/sodium citrate; “APE” means a solution of ammonia acetate, ammonia phosphate, EDTA; “PBS” means phosphate buffered saline; and “HRP” means horseradish peroxidase.
Vero 76 cells were maintained in MEM with Earle's salts, L-glutamine, 8% FBS (Hyclone, A-1111-L) and 100 units/mL Penicillin-100 μg/mL Streptomycin. For assay conditions, FBS was reduced to 2%. Cells are seeded into 96-well tissue culture plates at a density of 5×10^4 cells/well after being incubated for 45 min at 37° C. in the presence of HSV-1 or HSV-2 (MOI=0.001). Test compounds are added to the wells and the plates are incubated at 37° C. for 40–48 hours. Cell lysates are prepared as follows: media was removed and replaced with 150 μL/well 0.2 N NaOH with 1% Igepal CA 630 or NP-40. Plates were incubated up to 14 days at room temperature in a humidified chamber to prevent evaporation.
For the detection probe, a gel-purified, digoxigenin-labeled, 710-bp PCR fragment of the HSV UL-15 sequence was utilized. PCR conditions included 0.5 μM primers, 180 μM dTTP, 20 μM dUTP-digoxigenin (Boehringer Mannheim 1558706), 200 μM each of dATP, dCTP, and dGTP, 1×PCR Buffer II (Perkin Elmer), 2.5 mM MgCl2, 0.025 units/μL of AmpliTaq Gold polymerase (Perkin Elmer), and 5 ng of gel-purified HSV DNA per 100 μL Extension conditions were 10 min at 95° C., followed by 30 cycles of 95° C. for 1 min, 55° C. for 30 sec, and 72° C. for 2 min. The amplification was completed with a 10-min incubation at 72° C. Primers were selected to amplify a 728 bp probe spanning a section of the HSV1 UL15 open reading frame (nucleotides 249–977). Single-stranded transcripts were purified with Promega M13 Wizard kits. The final product was mixed 1:1 with a mixture of 6 M GuSCN, 100 mM EDTA and 200 μg/mL herring sperm DNA and stored at 4° C.
The capture DNA plasmid (HSV UL13 region in pUC) was linearized by cutting with Xba I, denatured for 15 min at 95° C. and diluted immediately into Reacti-Bind DNA Coating Solution (Pierce, 17250, diluted 1:1 with TE buffer, pH 8) at 1 ng/μL 75 μL/well were added to Corning (#3922 or 9690) white 96-well plates and incubated at room temperature for at least 4 hrs before washing twice with 300 μL/well 0.2×SSC/0.05% Tween-20 (SSC/T buffer). The plates were then incubated overnight at room temperature with 150 μL/well 0.2 N NaOH, 1% IGEPAL and 10 μg/mL herring sperm DNA.
Twenty-seven (27) μL of cell lysate was combined with 45 μL of hybridization solution (final concentration: 3M GuSCN, 50 mM EDTA, 100 μg/ml salmon sperm DNA, 5×Denhardt's solution, 0.25×APE, and 5 ng of the digoxigenin-labeled detection probe). APE is 1.5 M NH4-acetate, 0.15 M NH4H2 phosphate, and 5 mM EDTA adjusted to pH 6.0. Mineral oil (50 μL) was added to prevent evaporation. The hybridization plates were incubated at 95° C. for 10 minutes to denature the DNA, then incubated at 42° C. overnight. The wells were washed 6× with 300 μL/well SSC/T buffer then incubated with 75 μL/well anti-digoxigenin-HRP-conjugated antibody (Boehringer Mannheim 1207733, 1:5000 in TE) for 30 min at room temperature. The wells were washed 6× with 300 μL/well with PBS/0.05% Tween-20 before 75 μL/well SuperSignal LBA substrate (Pierce) was added. The plates were incubated at room temperature for 30 minutes and chemiluminescence was measured in a Wallac Victor reader.
The following results were obtained for HSV-1.
For the compound `Nc1cccc(-c2nn3c(N4CCCC4)cccc3c2-c2ccnc(NC3CCCC3)n2)c1` [Example 37, 4-[2-(3-Aminophenyl)-7-(1-pyrrolidinyl)pyrazolo[1,5-a]pyridin-3-yl]-N-cylopentyl-2-pyrimidinamine], the IC50 is 3000 nM.
As for `Oc1ccc(-c2nn3c(NC4CCCC4)cccc3c2-c2ccnc(NC3CC3)n2)cc1` [Example 68, 4-{7-(Cyclopentylamino)-3-[2-(cyclopropylamino)-4-pyrimidinyl]-pyrazolo[1,5-a]pyridin-2-yl}phenol], the figure is 1200 nM; as for `c1cc(OCC2CC2)cc(-c2nn3c(NC4CCCC4)cccc3c2-c2ccnc(NC3CCCC3)n2)c1` [Example 55, N-Cyclopentyl-3-[2-(cyclopentylamino)-4-pyrimidinyl]-2-[3-(cyclopropylmethoxy)phenyl]pyrazolo[1,5-a]pyridin-7-amine], 100 nM.
As for `COc1ccc(-c2nn3c(NC4CC4)cccc3c2-c2ccnc(NC3CC3)n2)cc1` [Example 66, N-Cyclopropyl-3-[2-(cyclopropylamino)-4-pyrimidinyl]-2-(4-methoxyphenyl)pyrazolo[1,5-a]pyridin-7-amine], the figure is 1300 nM; as for `Clc1cccc(-c2nn3c(NC4CC4)cccc3c2-c2ccnc(NC3CCCC3)n2)c1` [Example 101, 2-(3-Chlorophenyl)-3-[2-(cyclopentylamino)-4-pyrimidinyl]-N-cyclopropylpyrazolo[1,5-a]pyridin-7-amine], 200 nM.
As for `COCCNc1cccc2c(-c3ccnc(NC4CCCC4)n3)c(-c3cccc(Cl)c3)nn12` [Example 104, 2-(3-Chlorophenyl)-3-[2-(cyclopentylamino)-4-pyrimidinyl]-N-(2-methoxyethyl)pyrazolo[1,5-a]pyridin-7-amine], the figure is 200 nM.
For `FC(F)(F)c1cccc(-c2nn3c(NC4CCCC4)cccc3c2-c2ccnc(NC3CCCC3)n2)c1` [Example 98, N-Cyclopentyl-3-[2-(cyclopentylamino)-4-pyrimidinyl]-2-[3-(trifluoromethyl)phenyl]pyrazolo[1,5-a]pyridin-7-amine], the half-maximal inhibitory concentration (IC50) is 300 nM.
As for `c1cc(NC2CCCC2)n2nc(-c3ccc(OCC4CCC4)cc3)c(-c3ccnc(NC4CCCC4)n3)c2c1` [Example 12, 2-[4-(Cyclobutylmethoxy)phenyl]-N-cyclopentyl-3-[2-(cyclopentylamino)-4-pyrimidinyl]pyrazolo[1,5-a]pyridin-7-amine], the figure is 2000 nM; as for `Fc1cccc(-c2nn3c(NC4CC4)cccc3c2-c2ccnc(NC3CCCC3)n2)c1` [Example 105, 3-[2-(Cyclopentylamino)-4-pyrimidinyl]-N-cyclopropyl-2-(3-fluorophenyl)pyrazolo[1,5-a]pyridin-7-amine], 600 nM; as for `COc1ccc(-c2nn3c(N4CCCC4)cccc3c2-c2ccnc(NC3CCCC3)n2)cc1` [Example 2, N-Cyclopentyl-4-[2-(4-methoxyphenyl)-7-(1-pyrrolidinyl)pyrazolo[1,5-a]pyridin-3-yl]-2-pyrimidinamine], 600 nM.
As for `Oc1ccc(-c2nn3c(NC4CC4)cccc3c2-c2ccnc(NC3CCCC3)n2)cc1` [Example 67, 4-[3-[2-(Cyclopentylamino)-4-pyrimidinyl]-7-(cyclopropylamino)pyrazolo[1,5-a]pyridin-2-yl]phenol], the figure is 300 nM.
For `C=CCOc1ccc(-c2nn3c(NC4CC4)cccc3c2-c2ccnc(NC3CC3)n2)cc1` [Example 73, 2-[4-(Allyloxy)phenyl]-N-cyclopropyl-3-[2-(cyclopropylamino)-4-pyrimidinyl]pyrazolo[1,5-a]pyridin-7-amine] the value was 2000 nM.
As to `Clc1cccc(-c2nn3c(N4CCOCC4)cccc3c2-c2ccnc(NC3CCCC3)n2)c1` [Example 103, 4-[2-(3-Chlorophenyl)-7-(4-morpholinyl)pyrazolo[1,5-a]pyridin-3-yl]-N-cyclopentyl-2-pyrimidinamine], the IC50 amounted to 500 nM.
Take `Fc1cccc(-c2nn3c(NC4CCCC4)cccc3c2-c2ccnc(NC3CC3)n2)c1` [Example 102, N-Cyclopentyl-3-[2-(cyclopropylamino)-4-pyrimidinyl]-2-(3-fluorophenyl)pyrazolo[1,5-a]pyridin-7-amine]: the half-inhibitory concentration (IC50) came out at 700 nM.
As for `COc1ccc(-c2nn3c(NCCCCOP(=O)(O)O)cccc3c2-c2ccnc(NC3CCCC3)n2)cc1` [Example 92, 4-{[3-[2-(Cyclopentylamino)pyrimidin-4-yl]-2-(4-methoxy-phenyl)pyrazolo[1,5-a]pyridin-7-yl]amino}butyl phosphate diammonium salt], the figure is 300 nM; as for `[N-]=[N+]=Nc1cccc(-c2nn3c(NC4CCCC4)cccc3c2-c2ccnc(NC3CCCC3)n2)c1` [Example 93, 2-(3-Azidophenyl)-N-cyclopentyl-3-[2-(cyclopentylamino)pyrimidin-4-yl]pyrazolo[1,5-a]pyridin-7-amine], 700 nM.
On to `CC(=O)Nc1cccc(-c2nn3c(NC4CCCC4)cccc3c2-c2ccnc(NC3CCCC3)n2)c1` [Example 35, N-(3-{7-(Cyclopentylamino)-3-[2-(cyclopentylamino)-4-pyrimidinyl]pyrazolo[1,5-a]pyridin-2-yl}phenyl)acetamide], for which the 50% inhibitory concentration (IC50) came out at 2000 nM.
As for `Oc1ccc(-c2nn3c(NC4CC4)cccc3c2-c2ccnc(NC3CC3)n2)cc1` [Example 69, 4-{7-(Cyclopropylamino)-3-[2-(cyclopropylamino)-4-pyrimidinyl]-pyrazolo[1,5-a]pyridin-2-yl}phenol], the figure is 2300 nM; as for `COc1ccc(-c2nn3c(NCCCCNC(=O)CCC(=O)O)cccc3c2-c2ccnc(NC3CCCC3)n2)cc1` [Example 88, 4-[(4-{[3-[2-(Cyclopentylamino)pyrimidin-4-yl]-2-(4-methoxyphenyl)pyrazolo[1,5-a]pyridin-7-yl]amino}butyl)amino]-4-oxobutanoic acid], 9000 nM.
As for `c1ccc(Oc2ccc(-c3nn4c(NC5CCCC5)cccc4c3-c3ccnc(NC4CCCC4)n3)cc2)cc1` [Example 13, N-Cyclopentyl-3-[2-(cyclopentylamino)-4-pyrimidinyl]-2-(4-phenoxyphenyl)pyrazolo[1,5-a]pyridin-7-amine], the figure is 1000 nM; as for `CCCCNc1nccc(-c2c(-c3ccc(NCC4CC4)cc3)nn3c(NCCCC)cccc23)n1` [Example 22, N-butyl-3-[2-(butylamino)-4-pyrimidinyl]-2-{4-[(cyclopropylmethyl)amino]phenyl}pyrazolo[1,5-a]pyridin-7-amine], 600 nM; as for `Oc1ccc(-c2nn3c(N4CCCC4)cccc3c2-c2ccnc(NC3CCCC3)n2)cc1` [Example 5, 4-[3-[2-(Cyclopentylamino)-4-pyrimidinyl]-7-(1-pyrrolidinyl)pyrazolo[1,5-a]pyridin-2-yl]phenol], 2000 nM.
For `Clc1cccc(-c2nn3c(NC4CC4)cccc3c2-c2ccnc(NC3CC3)n2)c1` [Example 99, 2-(3-Chlorophenyl)-N-cyclopropyl-3-[2-(cyclopropylamino)-4-pyrimidinyl]pyrazolo[1,5-a]pyridin-7-amine] the value was 500 nM.

The values are drawn from patent US7153855B2, “Pyrazolopyridinyl pyrimidine therapeutic compounds” (SmithKline Beecham Corporation, priority 2001, dated 2006).
